{"source": "patent US8192962B2", "about": "“Processes for detecting toxic substances” (Daikin Industries, Ltd., priority 2001, dated 2012)", "test_system": "Energy system protein genes", "assay": "DNA chip mRNA expression in yeast, energy system protein genes (Table 4)", "type": "cell-based, Saccharomyces cerevisiae S288C", "protocol": "Yeast (Saccharomyces cerevisiae S288C (α SUC2mal mel gap2 CUP1)) were incubated at 25° C. on YPD medium (yeast extract 1%, polypepton 2%, glucose 2%). One of toxic chemical substances was added to the cells at logarithmic growth phase, and the cells were further incubated for two hours. Cells were cultured without any chemical substance in the same condition, and were used as control. Concentrations of the chemical substances were defined to inhibit the growth of the yeast but not lead to death.\nAfter completion of the incubation, the culture was centrifuged to collect the cells. To the cells, sodium acetate buffer (50 mM sodium acetate, 10 mM EDTA, 1% SDS) was added, and the mixture was shaken at 65° C. for five minutes, followed by returning to room temperature, and obtaining the supernatant, of which the procedures were repeated two times. To the supernatant, ½ amount of a solution of phenol/chloroform was added, and the mixture was centrifuged to give a supernatant, which was added with an equal amount of chloroform, and the mixture was centrifuged to give a supernatant. To the supernatant, an equal amount of isopropanol containing 0.3 M sodium acetate was added, and the mixture was allowed to stand at room temperature for 30 minutes, after which the mixture was centrifuged to give a sediment of the whole RNAs. Seventy % ethanol was added to the sediment, and the mixture was again centrifuged to give a sediment, which was then dried and dissolved in water. mRNA was isolated from the whole RNAs as followings. In view of the fact that a poly A chain is attached to the 3′ terminus of mRNA, a polynucleotide having a poly T structure which was immobilized on the surface of latex beads was used to trap the mRNA, and then the mRNA was washed and eluted with spine column (Oligotex-dT30<Super>mRNA Purification Kit, Takara). Reverse transcription of the mRNA was conducted with a reverse transcriptase (Super Script II Reverse Transcriptase; catalogue No. 18064-014, GibcoBRL) using fluorescence-labeled nucleotides to give cDNAs that were introduced with Cy3-dUTP or Cy5-dUTP during the reverse transcription.\nThe labeled cDNAs were dissolved in TE buffer (10mM Tris-HCl/1 mM EDTA, pH8.0), and the solution was dropped on the DNA chip containing the whole genes of yeast (DNA Chip Research Inc. Japan) so that the cDNAs were hybridized on the DNA chip at 65° C. for over 12 hours. The fluoresces intensity of the DNA chip was read with a scanner, and the ratio relative to the fluorescence intensity resulting from the absence of chemical substance was estimated as the following, which is shown in Tables 1 to 9: […]"}
{"smiles": "[Cl][Hg][Cl]", "note": "[(3), HgCl2]", "values": [{"measurement": "The level of expressed mRNA in the presence of chemical substance/The level of expressed mRNA in the absence of chemical substance", "setting": "yeast gene YAL060W", "value": 3.2}, {"measurement": "The level of expressed mRNA in the presence of chemical substance/The level of expressed mRNA in the absence of chemical substance", "setting": "yeast gene YBL058W, cells incubated two hours with the chemical substance", "value": 0.5}, {"measurement": "The level of expressed mRNA in the presence of chemical substance/The level of expressed mRNA in the absence of chemical substance", "setting": "yeast gene YBL099W, cells incubated two hours with the chemical substance", "value": 3.1}, {"measurement": "The level of expressed mRNA in the presence of chemical substance/The level of expressed mRNA in the absence of chemical substance", "setting": "yeast gene YBR001C, cells incubated two hours with the chemical substance", "value": 1.1}, {"measurement": "The level of expressed mRNA in the presence of chemical substance/The level of expressed mRNA in the absence of chemical substance", "setting": "yeast gene YBR185C, cells incubated two hours with the chemical substance", "value": 1.3}, {"measurement": "The level of expressed mRNA in the presence of chemical substance/The level of expressed mRNA in the absence of chemical substance", "setting": "yeast gene YBR221C, cells incubated two hours with the chemical substance", "value": 3.2}, {"measurement": "The level of expressed mRNA in the presence of chemical substance/The level of expressed mRNA in the absence of chemical substance", "setting": "yeast gene YCL040W", "value": 10.1}, {"measurement": "The level of expressed mRNA in the presence of chemical substance/The level of expressed mRNA in the absence of chemical substance", "setting": "yeast gene YCR012W", "value": 5.1}, {"measurement": "The level of expressed mRNA in the presence of chemical substance/The level of expressed mRNA in the absence of chemical substance", "setting": "yeast gene YCR046C, cells incubated two hours with the chemical substance", "value": 1.2}, {"measurement": "The level of expressed mRNA in the presence of chemical substance/The level of expressed mRNA in the absence of chemical substance", "setting": "yeast gene YCR105W, cells incubated two hours with the chemical substance", "value": 1.2}, {"measurement": "The level of expressed mRNA in the presence of chemical substance/The level of expressed mRNA in the absence of chemical substance", "setting": "yeast gene YDL021W", "value": 2.4}, {"measurement": "The level of expressed mRNA in the presence of chemical substance/The level of expressed mRNA in the absence of chemical substance", "setting": "yeast gene YDL067C, cells incubated two hours with the chemical substance", "value": 1.6}, {"measurement": "The level of expressed mRNA in the presence of chemical substance/The level of expressed mRNA in the absence of chemical substance", "setting": "yeast gene YDL078C, cells incubated two hours with the chemical substance", "value": 1.2}, {"measurement": "The level of expressed mRNA in the presence of chemical substance/The level of expressed mRNA in the absence of chemical substance", "setting": "yeast gene YDL107W, cells incubated two hours with the chemical substance", "value": 1.0}, {"measurement": "The level of expressed mRNA in the presence of chemical substance/The level of expressed mRNA in the absence of chemical substance", "setting": "yeast gene YDL174C", "value": 0.9}, {"measurement": "The level of expressed mRNA in the presence of chemical substance/The level of expressed mRNA in the absence of chemical substance", "setting": "yeast gene YDL181W, cells incubated two hours with the chemical substance", "value": 1.9}, {"measurement": "The level of expressed mRNA in the presence of chemical substance/The level of expressed mRNA in the absence of chemical substance", "setting": "yeast gene YDR001C", "value": 2.6}, {"measurement": "The level of expressed mRNA in the presence of chemical substance/The level of expressed mRNA in the absence of chemical substance", "setting": "yeast gene YDR050C, cells incubated two hours with the chemical substance", "value": 2.3}, {"measurement": "The level of expressed mRNA in the presence of chemical substance/The level of expressed mRNA in the absence of chemical substance", "setting": "yeast gene YDR079W, cells incubated two hours with the chemical substance", "value": 0.8}, {"measurement": "The level of expressed mRNA in the presence of chemical substance/The level of expressed mRNA in the absence of chemical substance", "setting": "yeast gene YDR178W, cells incubated two hours with the chemical substance", "value": 3.4}, {"measurement": "The level of expressed mRNA in the presence of chemical substance/The level of expressed mRNA in the absence of chemical substance", "setting": "yeast gene YDR231C", "value": 1.0}, {"measurement": "The level of expressed mRNA in the presence of chemical substance/The level of expressed mRNA in the absence of chemical substance", "setting": "yeast gene YDR298C, cells incubated two hours with the chemical substance", "value": 2.6}, {"measurement": "The level of expressed mRNA in the presence of chemical substance/The level of expressed mRNA in the absence of chemical substance", "setting": "yeast gene YDR377W, cells incubated two hours with the chemical substance", "value": 1.3}, {"measurement": "The level of expressed mRNA in the presence of chemical substance/The level of expressed mRNA in the absence of chemical substance", "setting": "yeast gene YDR529C, cells incubated two hours with the chemical substance", "value": 0.9}, {"measurement": "The level of expressed mRNA in the presence of chemical substance/The level of expressed mRNA in the absence of chemical substance", "setting": "yeast gene YEL024W, cells incubated two hours with the chemical substance", "value": 3.8}, {"measurement": "The level of expressed mRNA in the presence of chemical substance/The level of expressed mRNA in the absence of chemical substance", "setting": "yeast gene YEL039C, cells incubated two hours with the chemical substance", "value": 1.3}, {"measurement": "The level of expressed mRNA in the presence of chemical substance/The level of expressed mRNA in the absence of chemical substance", "setting": "yeast gene YER178W", "value": 3.6}, {"measurement": "The level of expressed mRNA in the presence of chemical substance/The level of expressed mRNA in the absence of chemical substance", "setting": "yeast gene YFL057C", "value": 1.5}, {"measurement": "The level of expressed mRNA in the presence of chemical substance/The level of expressed mRNA in the absence of chemical substance", "setting": "yeast gene YFR053C", "value": 3.0}, {"measurement": "The level of expressed mRNA in the presence of chemical substance/The level of expressed mRNA in the absence of chemical substance", "setting": "yeast gene YGL018C, cells incubated two hours with the chemical substance", "value": 1.8}, {"measurement": "The level of expressed mRNA in the presence of chemical substance/The level of expressed mRNA in the absence of chemical substance", "setting": "yeast gene YGL062W", "value": 1.1}, {"measurement": "The level of expressed mRNA in the presence of chemical substance/The level of expressed mRNA in the absence of chemical substance", "setting": "yeast gene YGL187C, cells incubated two hours with the chemical substance", "value": 1.6}, {"measurement": "The level of expressed mRNA in the presence of chemical substance/The level of expressed mRNA in the absence of chemical substance", "setting": "yeast gene YGL191W, cells incubated two hours with the chemical substance", "value": 1.4}, {"measurement": "The level of expressed mRNA in the presence of chemical substance/The level of expressed mRNA in the absence of chemical substance", "setting": "yeast gene YGL205W, cells incubated two hours with the chemical substance", "value": 0.7}, {"measurement": "The level of expressed mRNA in the presence of chemical substance/The level of expressed mRNA in the absence of chemical substance", "setting": "yeast gene YGL256W, cells incubated two hours with the chemical substance", "value": 1.1}, {"measurement": "The level of expressed mRNA in the presence of chemical substance/The level of expressed mRNA in the absence of chemical substance", "setting": "yeast gene YGR043C", "value": 3.2}, {"measurement": "The level of expressed mRNA in the presence of chemical substance/The level of expressed mRNA in the absence of chemical substance", "setting": "yeast gene YGR062C, cells incubated two hours with the chemical substance, 25° C., YPD medium", "value": 0.7}, {"measurement": "The level of expressed mRNA in the presence of chemical substance/The level of expressed mRNA in the absence of chemical substance", "setting": "yeast gene YGR087C, cells incubated two hours with the chemical substance", "value": 1.7}, {"measurement": "The level of expressed mRNA in the presence of chemical substance/The level of expressed mRNA in the absence of chemical substance", "setting": "yeast gene YGR174C, cells incubated two hours with the chemical substance", "value": 0.6}, {"measurement": "The level of expressed mRNA in the presence of chemical substance/The level of expressed mRNA in the absence of chemical substance", "setting": "yeast gene YGR192C", "value": 3.8}, {"measurement": "The level of expressed mRNA in the presence of chemical substance/The level of expressed mRNA in the absence of chemical substance", "setting": "yeast gene YGR244C", "value": 1.6}, {"measurement": "The level of expressed mRNA in the presence of chemical substance/The level of expressed mRNA in the absence of chemical substance", "setting": "yeast gene YGR254W", "value": 3.8}, {"measurement": "The level of expressed mRNA in the presence of chemical substance/The level of expressed mRNA in the absence of chemical substance", "setting": "yeast gene YHR179W", "value": 2.6}, {"measurement": "The level of expressed mRNA in the presence of chemical substance/The level of expressed mRNA in the absence of chemical substance", "setting": "yeast gene YIL160C", "value": 2.3}, {"measurement": "The level of expressed mRNA in the presence of chemical substance/The level of expressed mRNA in the absence of chemical substance", "setting": "yeast gene YIR031C, cells incubated two hours with the chemical substance", "value": 0.6}, {"measurement": "The level of expressed mRNA in the presence of chemical substance/The level of expressed mRNA in the absence of chemical substance", "setting": "yeast gene YJL052W", "value": 4.0}, {"measurement": "The level of expressed mRNA in the presence of chemical substance/The level of expressed mRNA in the absence of chemical substance", "setting": "yeast gene YJL121C, cells incubated two hours with the chemical substance", "value": 1.9}, {"measurement": "The level of expressed mRNA in the presence of chemical substance/The level of expressed mRNA in the absence of chemical substance", "setting": "yeast gene YJL166W, cells incubated two hours with the chemical substance", "value": 1.6}, {"measurement": "The level of expressed mRNA in the presence of chemical substance/The level of expressed mRNA in the absence of chemical substance", "setting": "yeast gene YJL216C, cells incubated two hours with the chemical substance", "value": 2.2}, {"measurement": "The level of expressed mRNA in the presence of chemical substance/The level of expressed mRNA in the absence of chemical substance", "setting": "yeast gene YJR009C", "value": 5.6}]}
